# Results reported in EP3722296B1, “DIHYDRONAPHTHYRIDINES AND RELATED COMPOUNDS USEFUL AS KINASE INHIBITORS FOR THE TREATMENT OF PROLIFERATIVE DISEASES” (Deciphera Pharmaceuticals, LLC, priority 2012, dated 2013).
# How the values were obtained:
# [1] = system: Phospho-KIT (Tyr719); assay: GIST430 KIT Western Blot; format: cell-based; conditions: GIST430 cells, 4 hours, serum-free medium; read-out: pKIT suppression by western blot analysi GIST430
# Method: (§1) GIST48, GIST430, and GIST882 cells were obtained from J. Fletcher (Brigham and Women's Hospital, Boston, MA). GIST T1 cells were obtained from B. Rubin (Cleveland Clinic, Cleveland, OH) and Professor Takahiro Taguchi (Kochi Medical School, Nankoku, Kochi, Japan). […] GIST430 cells were grown in Ham's F10 medium supplemented with 15% characterized fetal bovine serum (Invitrogen, Carlsbad, CA), 30 mg/L bovine pituitary extract (BD Biosciences, San Jose, CA), 0.5% Mito+ serum extender (BD Biosciences, San Jose, CA), 1 unit/mL penicillin G, 1 µg/ml streptomycin, and 0.29 mg/mL L-glutamine at 37 °C, 5%CO2, 95% humidity. GIST T1 cells were grown in DMEM medium supplemented with 10% characterized fetal bovine serum (Invitrogen, Carlsbad, CA), 1 unit/mL penicillin G, 1 µg/ml streptomycin, and 0.29 mg/mL L-glutamine at 37 °C, 5% CO2, and 95% humidity.
# (§2) One hundred fifty thousand cells were added per well in a 24-well tissue-culture treated plate. […] Medium was aspirated, cells were washed with PBS, and serum-free Ham's F10 medium was added. […] Cells were washed with PBS, then lysed. Cell lysates were separated by SDS-PAGE and transferred to PVDF. Phospho-KIT (Tyr719) was detected using an antibody from Cell Signaling Technology (Beverly, MA), ECL Plus detection reagent (GE Healthcare, Piscataway, NJ) and a Molecular Devices Storm 840 phosphorimager in fluorescence mode. Blots were stripped and probed for total KIT using an antibody from Santa Cruz Biotech (Santa Cruz, CA). IC50 values were calculated using Prism software (Graphpad, San Diego, CA).
# [2] = system: Phospho-KIT (Tyr719); assay: GIST48 KIT Western Blot; format: cell-based; conditions: GIST48 cells, 4 hours, serum-free medium; read-out: pKIT suppression by western blot analysi GIST48
# Method in brief: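 Phospho-KIT (Tyr719) was immunoblotted on PVDF and imaged in fluorescence mode after ECL Plus, with stripping and reprobing for total KIT. IC50 values were derived from the blot signals.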
# [3] = molecular target: T1, Phospho-KIT (Tyr719) (Homo sapiens, UniProt P10721, K642E); assay: GIST882 KIT Western Blot; format: cell-based; conditions: GIST882 cells, 4 hours, serum-free medium; read-out: pKIT suppression by western blot analysi GIST 882
# T1 construct: endogenous in cells; host or cells: GIST882
# Method: as §1
# as §2, with “Two” for “One”, “RPMI1640” for “Ham's F10”
# [4] = molecular target: T2, c-KIT VVDV kinase (Homo sapiens, UniProt P10721, D816V/DEL559-560); assay: cKIT-VVDV kinase Assay; format: biochemical; conditions: enzymatic assay; V559+V560 deletions and D816V mutation
# T2 construct: This construct contains residues T544-V976 of cKit; GST (N); TEV cleavage site (internal); purchased deCODE Biostructures
# Method: In this assay, the oxidation of NADH (measured by decrease in absorbance at 340 nm) was continuously monitored spectrophotometrically. […] The inhibition reaction was started by mixing serial diluted test compound with the above reaction mixture. The absorption at 340 nm was monitored continuously for 5 hours at 30 °C on Synergy 2 plate reader (BioTech). […] The protein construct was prepared by deCODE Biostructures using procedures known in the art. […] This construct is identical to Seq ID no.
# [5] = molecular target: T3, c-KIT T670I kinase (Homo sapiens, UniProt P10721, T670I); assay: c-KIT T670I kinase assay; format: biochemical; conditions: enzymatic assay
# T3 construct: The construct contains residues T544-V976 of cKit; GST (N); TEV cleavage site (internal); purchased deCODE Biostructures
# Method in brief: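 Enzyme: GST-fused, N-terminally tagged cKit bearing T670I, with TEV cleavage site. Reaction started by mixing compound dilutions with reaction mix; activity read continuously over 5 h at 30 °C as loss of 340 nm absorbance from NADH consumption.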
# [6] = molecular target: T4, c-KIT D816V kinase (Homo sapiens, UniProt P10721, D816V); assay: c-KIT D816V kinase Assay; format: biochemical; conditions: enzymatic assay, ATP 200 uM
# T4 construct: residues T544-V976 with N-terminal GST fusion; purchased deCODE Biostructures
# Method in brief: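 Coupled assay in which NADH oxidation was tracked as decreasing absorbance at 340 nm, continuously for 5 hours at 30 °C after adding serially diluted compound. Enzyme: cKit residues T544-V976 with N-terminal tag, GST fusion and TEV cleavage site.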
# [7] = molecular target: T5, c-KIT kinase (Homo sapiens, UniProt P10721); assay: c-KIT kinase Assay; format: biochemical; set-up: cKIT residues T544-V976; GST (N); TEV cleavage site (internal); purchased deCODE Biostructures; conditions: enzymatic assay, ATP 200 µM; read-out: KIT (wt) IC50
# Method in brief: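 This continuous spectrophotometric assay tracked c-KIT kinase turnover through NADH consumption at 340 nm, recorded for 2 hours at 30 °C. The enzyme construct from deCODE Biostructures carried an N-terminal tag, a GST-fusion sequence and a TEV cleavage site. Percent inhibition came from reaction rates over 0 to 1 h relative to a no-compound control, and IC50 values were derived with GraphPad Prism.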
# Target sequence in this assay (P10721 544-976): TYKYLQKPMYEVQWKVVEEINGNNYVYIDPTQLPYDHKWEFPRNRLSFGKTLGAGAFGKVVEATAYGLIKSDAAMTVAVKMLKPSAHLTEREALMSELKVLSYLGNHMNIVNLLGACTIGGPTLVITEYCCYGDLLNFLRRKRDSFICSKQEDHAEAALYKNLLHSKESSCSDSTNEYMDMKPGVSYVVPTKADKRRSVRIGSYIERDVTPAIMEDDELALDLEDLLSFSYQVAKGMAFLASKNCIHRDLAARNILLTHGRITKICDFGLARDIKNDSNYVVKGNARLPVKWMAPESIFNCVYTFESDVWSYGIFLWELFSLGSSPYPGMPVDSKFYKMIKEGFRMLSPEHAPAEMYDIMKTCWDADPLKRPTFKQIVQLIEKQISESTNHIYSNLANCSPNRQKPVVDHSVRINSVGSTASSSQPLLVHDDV
# [8] = system: GIST430 cells; assay: GIST 430 Cell Proliferation Assay; format: cell-based; conditions: Homo sapiens, 120 h, 115 hours + 5 hours resazurin
# Method: GIST48, GIST430, and GIST882 cells were obtained from J. Fletcher (Brigham and Women's Hospital, Boston, MA). GIST T1 cells were obtained from B. Rubin (Cleveland Clinic, Cleveland, OH) and Professor Takahiro Taguchi (Kochi Medical School, Nankoku, Kochi, Japan). Briefly, GIST48 and GIST 882 cells were grown in RPMI 1640 medium supplemented with 15% characterized fetal bovine serum (Invitrogen, Carlsbad, CA), 1 unit/mL penicillin G, 1 µg/ml streptomycin, and 0.29 mg/mL L-glutamine at 37 °C, 5% CO2, and 95% humidity. GIST430 cells were grown in Ham's F10 medium supplemented with 15% characterized fetal bovine serum (Invitrogen, Carlsbad, CA), 30 mg/L bovine pituitary extract (BD Biosciences, San Jose, CA), 0.5% Mito+ serum extender (BD Biosciences, San Jose, CA), 1 unit/mL penicillin G, 1 µg/ml streptomycin, and 0.29 mg/mL L-glutamine at 37 °C, 5%CO2, 95% humidity. GIST T1 cells were grown in DMEM medium supplemented with 10% characterized fetal bovine serum (Invitrogen, Carlsbad, CA), 1 unit/mL penicillin G, 1 µg/ml streptomycin, and 0.29 mg/mL L-glutamine at 37 °C, 5% CO2, and 95% humidity.
# A serial dilution of test compound was dispensed into a 384-well black clear bottom plate (Corning, Corning, NY). Two thousand five-hundred cells were added per well in 50 µL complete growth medium. Plates were incubated for 115 hours at 37°C, 5% CO2, 95% humidity. At the end of the incubation period 10 µL of a 440 µM solution of resazurin (Sigma, St. Louis, MO) in PBS was added to each well and incubated for an additional 5 hours at 37°C, 5% CO2, 95% humidity. Plates were read on a Synergy2 reader (Biotek, Winooski, VT) using an excitation of 540 nm and an emission of 600 nm.
# [9] = system: GIST T1 cells; assay: GIST T1 Cell Proliferation Assay; format: cell-based; conditions: Homo sapiens, GISTT1, 72 h, 68 hours + 4 hours resazurin
# [10] = molecular target: T6, c-KIT D816H kinase (Homo sapiens, UniProt P10721, D816H); assay: c-KIT D816H Kinase Assay; format: biochemical; conditions: enzymatic assay, ATP 200 µM
# T6 construct: The construct contains residues T544-V976 of cKit; GST (N); TEV cleavage site (internal); purchased deCODE Biostructures
# Method in brief: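 Mutant cKit enzyme, expressed as a GST-fusion construct carrying an N-terminal tag and TEV site, was mixed with serially diluted compound to start reactions. Activity tracked via NADH consumption, read continuously at 340 nm over 6 hours at 30 °C.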
# [11] = molecular target: T7, c-KIT V654A kinase (Homo sapiens, UniProt P10721, V654A); assay: c-KIT V654A Kinase Assay; format: biochemical; conditions: enzymatic assay, ATP 200 µM
# T7 construct: residues T544-V976 with N-terminal GST fusion; purchased deCODE Biostructures
# Method in brief: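 Kinase activity tracked by coupled NADH consumption, monitored continuously at 340 nm over 6 h at 30 °C after serially diluted compound was mixed in to start inhibition. Enzyme used was a GST-fused, N-terminally tagged cKIT T544–V976 construct with a TEV cleavage site.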
# [12] = molecular target: T5, c-KIT kinase; assay: Kinase inhibitory profile of marketed inhibitors, c-KIT kinase; format: biochemical
# Target sequence in this assay (P10721 26-976): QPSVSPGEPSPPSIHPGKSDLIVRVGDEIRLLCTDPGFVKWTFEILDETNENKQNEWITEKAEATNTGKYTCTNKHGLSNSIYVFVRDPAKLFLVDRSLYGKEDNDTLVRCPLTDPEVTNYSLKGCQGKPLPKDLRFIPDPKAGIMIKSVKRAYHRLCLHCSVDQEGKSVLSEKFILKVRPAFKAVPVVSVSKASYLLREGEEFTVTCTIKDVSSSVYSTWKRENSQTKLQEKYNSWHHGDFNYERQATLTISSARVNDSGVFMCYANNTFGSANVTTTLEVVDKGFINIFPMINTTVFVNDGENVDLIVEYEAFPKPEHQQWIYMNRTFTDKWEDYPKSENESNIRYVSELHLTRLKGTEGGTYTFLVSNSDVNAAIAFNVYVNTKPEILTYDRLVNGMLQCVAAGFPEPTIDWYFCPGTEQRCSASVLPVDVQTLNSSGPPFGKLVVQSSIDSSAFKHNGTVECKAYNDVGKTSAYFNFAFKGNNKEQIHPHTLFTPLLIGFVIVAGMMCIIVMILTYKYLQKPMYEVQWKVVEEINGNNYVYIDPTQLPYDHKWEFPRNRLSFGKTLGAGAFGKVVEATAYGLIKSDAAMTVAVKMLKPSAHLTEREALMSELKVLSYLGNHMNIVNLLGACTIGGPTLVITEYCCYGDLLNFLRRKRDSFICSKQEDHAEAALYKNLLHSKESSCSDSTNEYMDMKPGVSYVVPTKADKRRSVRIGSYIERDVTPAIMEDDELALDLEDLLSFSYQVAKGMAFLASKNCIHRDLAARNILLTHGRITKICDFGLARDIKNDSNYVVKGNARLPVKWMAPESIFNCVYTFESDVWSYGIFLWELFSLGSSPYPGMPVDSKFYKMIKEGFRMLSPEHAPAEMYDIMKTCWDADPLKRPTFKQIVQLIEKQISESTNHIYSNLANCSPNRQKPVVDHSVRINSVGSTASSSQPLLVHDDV
# T2 sequence (P10721 with tags, fused parts or gaps DEL559-560/D816V): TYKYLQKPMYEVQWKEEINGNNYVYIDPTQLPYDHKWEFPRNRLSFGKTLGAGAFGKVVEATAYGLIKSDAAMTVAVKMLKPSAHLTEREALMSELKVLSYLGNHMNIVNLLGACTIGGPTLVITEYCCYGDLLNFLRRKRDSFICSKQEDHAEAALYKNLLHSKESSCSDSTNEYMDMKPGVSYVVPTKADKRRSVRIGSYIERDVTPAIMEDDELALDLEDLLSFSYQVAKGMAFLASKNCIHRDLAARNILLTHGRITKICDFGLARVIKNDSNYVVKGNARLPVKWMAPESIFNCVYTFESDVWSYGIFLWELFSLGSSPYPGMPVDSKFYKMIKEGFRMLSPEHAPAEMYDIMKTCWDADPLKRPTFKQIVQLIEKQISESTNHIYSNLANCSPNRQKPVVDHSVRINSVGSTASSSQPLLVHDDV
# T4 sequence (P10721 544-976 D816V): as the sequence (P10721 544-976) above, with D273V counted along it
# T6 sequence (P10721 544-976 D816H): as the sequence (P10721 544-976) above, with D273H counted along it
# T3 sequence (P10721 544-976 T670I): as the sequence (P10721 544-976) above, with T127I counted along it
# T1 sequence (P10721 26-976 K642E): as the sequence (P10721 26-976) above, with K617E counted along it
# T7 sequence (P10721 544-976 V654A): as the sequence (P10721 544-976) above, with V111A counted along it
Structure (SMILES),IC50 [1] [nM],IC50 [2] [nM],IC50 [3] [nM],IC50 [4] [nM],IC50 [5] [nM],IC50 [6] [nM],IC50 [7] [nM],IC50 [8] [nM],IC50 [9] [nM],IC50 [10] [nM],IC50 [11] [nM],IC50 [12] [nM]
"CNc1cc2c(cn1)cc(-c1cc(NC(=O)Nc3csc4ccccc34)c(F)cc1F)c(=O)n2C [Example 14, 1-(benzo[b]thiophen-3-yl)-3-(2,4-difluoro-5-(1-methyl-7-(methylamino)-2-oxo-1,2-dihydro-1,6-naphthyridin-3-yl)phenyl)urea]",10 to 100,< 10,< 10,10 to 100,< 10,10 to 100,–,–,–,–,–,–
"CCn1c(=O)c(-c2cc(NC(=O)Nc3ccccc3F)c(F)cc2C)cc2cnc(NC)cc21 [Example 38, 1-(5-(1-ethyl-7-(methylamino)-2-oxo-1,2-dihydro-1,6-naphthyridin-3-yl)-2-fluoro-4-methylphenyl)-3-(2-fluorophenyl)urea]",–,> 1000,–,–,100 to 1000,10 to 100,< 10,10 to 100,< 10,10 to 100,–,–
"CCn1c(=O)c(-c2cc(NC(=O)Nc3ccccc3)c(F)cc2F)cc2cnc(NC)cc21 [Example 16, 1-(5-(1-ethyl-7-(methylamino)-2-oxo-1,2-dihydro-1,6-naphthyridin-3-yl)-2,4-difluorophenyl)-3-phenylurea]",100 to 1000,100 to 1000,10 to 100,10 to 100,10 to 100,10 to 100,< 10,–,–,10 to 100,< 10,–
"CCCS(=O)(=O)Nc1ccc(F)c(C(=O)c2c[nH]c3ncc(-c4ccc(Cl)cc4)cc23)c1F [Vemurafenib®, vemurafenib]",–,–,–,–,–,–,–,–,–,–,–,1600
"CC(=O)Nc1cc2c(cn1)cc(-c1cc(NC(=O)Nc3ccccc3)c(F)cc1Cl)c(=O)n2C(C)C [Example 86, N-(3-(2-chloro-4-fluoro-5-(3-phenylureido)phenyl)-1-isopropyl-2-oxo-1,2-dihydro-1,6-naphthyridin-7-yl)acetamide]",10 to 100,< 10,< 10,–,10 to 100,< 10,< 10,–,< 10,–,10 to 100,–
"CCn1c(=O)c(-c2cc(NC(=O)Nc3cccc4ccccc34)c(F)cc2C)cc2cnc(NC)cc21 [Example 1, 1-(5-(1-ethyl-7-(methylamino)-2-oxo-1,2-dihydro-1,6-naphthyridin-3-yl)-2-fluoro-4-methylphenyl)-3-(naphthalen-1-yl)urea]",< 10,10 to 100,100 to 1000,10 to 100,< 10,10 to 100,< 10,–,–,10 to 100,–,–
"CCn1c(=O)c(-c2cc(NC(=O)Nc3cccc(F)c3)c(F)cc2F)cc2cnc(NC)cc21 [Example 15, 1-(5-(1-ethyl-7-(methylamino)-2-oxo-1,2-dihydro-1,6-naphthyridin-3-yl)-2,4-difluorophenyl)-3-(3-fluorophenyl)urea]",10 to 100,10 to 100,10 to 100,10 to 100,10 to 100,10 to 100,< 10,–,–,10 to 100,< 10,–
"CCn1c(=O)c(-c2cc(NC(=O)Nc3ccccc3)c(F)cc2Cl)cc2cnc(NCCCOC)cc21 [Example 39, 1-(4-chloro-5-(1-ethyl-7-(3-methoxypropylamino)-2-oxo-1,2-dihydro-1,6-naphthyridin-3-yl)-2-fluorophenyl)-3-phenylurea]",–,–,–,–,10 to 100,10 to 100,< 10,10 to 100,–,–,–,–
"CNc1cc2c(cn1)cc(-c1cc(NC(=O)Nc3cccc(F)c3)c(F)cc1F)c(=O)n2C(C)C [Example 40, 1-(2,4-difluoro-5-(1-isopropyl-7-(methylamino)-2-oxo-1,2-dihydro-1,6-naphthyridin-3-yl)phenyl)-3-(3-fluorophenyl)urea]",–,–,–,100 to 1000,100 to 1000,10 to 100,< 10,100 to 1000,< 10,10 to 100,10 to 100,–
